Measured values taken from patent US5593984A, “Cephalosporin derivatives” (Yuhan Corporation, priority 1992, dated 1997).
Converted amounts (≈) assume the structure as drawn.

Assays:
Format in all cases: cell-based
[1] = system: Ps. aeruginosa ATCC 10145; test: MIC by agar dilution, Ps. aeruginosa ATCC 10145; conditions: Pseudomonas aeruginosa, ATCC10145, 17 h, Mueller-Hinton agar, read-out: Minimal Inhibitory Concentration (MIC)
Method in brief: (§1)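 Agar incorporation method in Mueller-Hinton medium, compound in two-fold series; 10^6 CFU/ml spots; read after 17±1 h, 35°-37° C.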

[2] = system: E. coli NIHJ JC-2; test: MIC by agar dilution, E. coli NIHJ JC-2; conditions: Escherichia coli, NIHJJC2, 17 h; E. coli NIHJ JC-2; agar dilution, Mueller-Hinton agar; read-out: Minimal Inhibitory Concentration (MIC)
Method in brief: as §1

[3] = system: S. epidermidis ATCC 12228; test: MIC by agar dilution, S. epidermidis ATCC 12228; conditions: Staphylococcus epidermidis, ATCC12228, 17 h; S. epidermidis ATCC 12228; agar dilution, Mueller-Hinton agar; read-out: Minimal Inhibitory Concentration (MIC)
Method in brief: as §1

[4] = system: K. pneumoniae NCTC 9632; test: MIC by agar dilution, K. pneumoniae NCTC 9632; conditions: Klebsiella pneumoniae, NCTC9632, 17 h; K. pneumoniae NCTC 9632; agar dilution, Mueller-Hinton agar; read-out: Minimal Inhibitory Concentration (MIC)
Method in brief: as §1

[5] = system: M. morganii DY-1; test: MIC by agar dilution, M. morganii DY-1; conditions: Morganella morganii, DY1, 17 h; M. morganii DY-1; agar dilution, Mueller-Hinton agar; read-out: Minimal Inhibitory Concentration (MIC)
Method in brief: as §1

[6] = system: Ps. aeruginosa NCTC 10490; test: MIC by agar dilution, Ps. aeruginosa NCTC 10490; conditions: Pseudomonas aeruginosa, NCTC10490, 17 h, Mueller-Hinton agar, read-out: Minimal Inhibitory Concentration (MIC)
Method in brief: as §1

[7] = system: Staph. aureus C-5216; test: MIC by agar dilution, Staph. aureus C-5216; conditions: Staphylococcus aureus, C5216, 17 h, Mueller-Hinton agar, read-out: Minimal Inhibitory Concentration (MIC)
Method in brief: as §1

[8] = system: Ent. cloacae IFO 13535; test: MIC by agar dilution, Ent. cloacae IFO 13535; conditions: Enterobacter cloacae, IFO13535, 17 h; Ent. cloacae IFO 13535; agar dilution, Mueller-Hinton agar; read-out: Minimal Inhibitory Concentration (MIC)
Method in brief: as §1

[9] = system: P. vulgaris NCTC 8313; test: MIC by agar dilution, P. vulgaris NCTC 8313; conditions: Proteus vulgaris, NCTC8313, 17 h; P. vulgaris NCTC 8313; agar dilution, Mueller-Hinton agar; read-out: Minimal Inhibitory Concentration (MIC)
Method in brief: as §1

[10] = system: Ser. marcescens IFO 12648; test: MIC by agar dilution, Ser. marcescens IFO 12648; conditions: Serratia marcescens, IFO12648, 17 h; Ser. marcescens IFO 12648; agar dilution, Mueller-Hinton agar; read-out: Minimal Inhibitory Concentration (MIC)
Method in brief: as §1

[11] = system: Staph. aureus C-5113; test: MIC by agar dilution, Staph. aureus C-5113; conditions: Staphylococcus aureus, C5113, 17 h, Mueller-Hinton agar, read-out: Minimal Inhibitory Concentration (MIC)
Method in brief: as §1

[12] = system: Staph. aureus C-57; test: MIC by agar dilution, Staph. aureus C-57; conditions: Staphylococcus aureus, C57, 17 h, Mueller-Hinton agar, read-out: Minimal Inhibitory Concentration (MIC)
Method in brief: as §1

[13] = system: Staph. aureus Smith; test: MIC by agar dilution, Staph. aureus Smith; conditions: Staphylococcus aureus, 17 h, Mueller-Hinton agar, read-out: Minimal Inhibitory Concentration (MIC)
Method in brief: as §1

[14] = system: Ps. aeruginosa DY-2; test: MIC by agar dilution, Ps. aeruginosa DY-2; conditions: Pseudomonas aeruginosa, DY2, 17 h; Ps. aeruginosa DY-2; agar dilution, Mueller-Hinton agar; read-out: Minimal Inhibitory Concentration (MIC)
Method in brief: as §1

[15] = system: E. coli DY-1; test: MIC by agar dilution, E. coli DY-1; conditions: Escherichia coli, DY1, 17 h; E. coli DY-1; agar dilution, Mueller-Hinton agar; read-out: Minimal Inhibitory Concentration (MIC)
Method in brief: as §1

[16] = system: Prov. stuartii IFO 12930; test: MIC by agar dilution, Prov. stuartii IFO 12930; conditions: Providencia stuartii, IFO12930, 17 h, Mueller-Hinton agar, read-out: Minimal Inhibitory Concentration (MIC)
Method in brief: as §1

[17] = system: E. coli No. 29; test: MIC by agar dilution, E. coli No. 29; conditions: Escherichia coli, 17 h; E. coli No. 29; agar dilution, Mueller-Hinton agar; read-out: Minimal Inhibitory Concentration (MIC)
Method in brief: as §1

[18] = system: Staph. aureus ATCC 6538P; test: MIC by agar dilution, Staph. aureus ATCC 6538P; conditions: Staphylococcus aureus, ATCC6538P, 17 h; Staph. aureus ATCC 6538P; agar dilution, Mueller-Hinton agar; read-out: Minimal Inhibitory Concentration (MIC)
Method in brief: as §1

[19] = system: B. subtilis ATCC 6633; test: MIC by agar dilution, B. subtilis ATCC 6633; conditions: Bacillus subtilis, ATCC6633, 17 h; B. subtilis ATCC 6633; agar dilution, Mueller-Hinton agar; read-out: Minimal Inhibitory Concentration (MIC)
Method in brief: as §1

[20] = system: Ent. aerogenes IFO 12979; test: MIC by agar dilution, Ent. aerogenes IFO 12979; conditions: Klebsiella aerogenes, IFO12979, 17 h, Mueller-Hinton agar, read-out: Minimal Inhibitory Concentration (MIC)
Method in brief: as §1

| MIC [1] [µg/mL] | MIC [2] [µg/mL] | MIC [3] [µg/mL] | MIC [4] [µg/mL] | MIC [5] [µg/mL] | MIC [6] [µg/mL] | MIC [7] [µg/mL] | MIC [8] [µg/mL] | MIC [9] [µg/mL] | MIC [10] [µg/mL] | MIC [11] [µg/mL] | MIC [12] [µg/mL] | MIC [13] [µg/mL] | MIC [14] [µg/mL] | MIC [15] [µg/mL] | MIC [16] [ng/mL] | MIC [17] [µg/mL] | MIC [18] [µg/mL] | MIC [19] [µg/mL] | MIC [20] [µg/mL] | Compound |
| --- | --- | --- | --- | --- | --- | --- | --- | --- | --- | --- | --- | --- | --- | --- | --- | --- | --- | --- | --- | --- |
| 6.25 (≈ 11.2 µM) | 0.1 (≈ 0.179 µM) | 0.05 (≈ 0.0895 µM) | 0.05 (≈ 0.0895 µM) | 0.05 (≈ 0.0895 µM) | 1.56 (≈ 2.79 µM) | 1.56 (≈ 2.79 µM) | 0.78 (≈ 1.4 µM) | 0.012 (≈ 0.0215 µM) | 0.1 (≈ 0.179 µM) | 3.13 (≈ 5.6 µM) | 25 (≈ 44.8 µM) | 1.56 (≈ 2.79 µM) | 25 (≈ 44.8 µM) | 0.05 (≈ 0.0895 µM) | ≤ 6 | 0.05 (≈ 0.0895 µM) | 0.39 (≈ 0.698 µM) | 0.39 (≈ 0.698 µM) | 0.05 (≈ 0.0895 µM) | CON=C(C(=O)NC1C(=O)N2C(C(=O)[O-])=C(C[n+]3ccn4c([N+](=O)[O-])ccc4c3)CSC12)c1csc(N)n1 (stereo not drawn) [Ex. 14, 7-β-[(Z)-2-(2-aminothiazol-4-yl)-2-methoxyiminoacetamido]-3-(6-nitropyrrolo[1,2-a]pyrazinium-2-yl)methyl-3-cephem-4-carboxylate] |
| 1.56 (≈ 2.78 µM) | 0.2 (≈ 0.356 µM) | 0.1 (≈ 0.178 µM) | 0.1 (≈ 0.178 µM) | 0.39 (≈ 0.694 µM) | 0.78 (≈ 1.39 µM) | 0.78 (≈ 1.39 µM) | 0.78 (≈ 1.39 µM) | 0.012 (≈ 0.0214 µM) | 0.2 (≈ 0.356 µM) | 0.78 (≈ 1.39 µM) | 3.13 (≈ 5.57 µM) | 0.39 (≈ 0.694 µM) | 3.13 (≈ 5.57 µM) | 0.05 (≈ 0.089 µM) | 12 (≈ 0.0214 µM) | 0.05 (≈ 0.089 µM) | 0.05 (≈ 0.089 µM) | 0.2 (≈ 0.356 µM) | 0.1 (≈ 0.178 µM) | CO/N=C(\C(=O)N[C@@H]1C(=O)N2C(C(=O)[O-])=C(C[n+]3ccn4cccc4c3C)CS[C@H]12)c1nc(N)sc1Cl [Ex. 56, 7-β-[(Z)-2-(2-amino-5-chlorothiazol-4-yl)-2-methoxyiminoacetamido]-3-(1-methylpyrrolo[1,2-a]-pyrazinium-2-yl)methyl-3-cephem-4-carboxylate] |
| 0.78 (≈ 1.42 µM) | 0.012 (≈ 0.0219 µM) | 0.05 (≈ 0.0912 µM) | 0.012 (≈ 0.0219 µM) | ≤ 0.006 | 0.2 (≈ 0.365 µM) | 0.2 (≈ 0.365 µM) | 0.05 (≈ 0.0912 µM) | ≤ 0.006 | 0.012 (≈ 0.0219 µM) | 0.78 (≈ 1.42 µM) | 25 (≈ 45.6 µM) | 0.2 (≈ 0.365 µM) | 1.56 (≈ 2.85 µM) | ≤ 0.006 | ≤ 6 | ≤ 0.006 | 0.2 (≈ 0.365 µM) | 0.2 (≈ 0.365 µM) | 0.025 (≈ 0.0456 µM) | CO/N=C(\C(=O)N[C@@H]1C(=O)N2C(C(=O)[O-])=C(C[n+]3ccn4ccc(Cl)c4c3)CS[C@H]12)c1csc(N)n1 [Ex. 33, 7-β-[(Z)-2-(2-aminothiazol-4-yl)2-methoxyiminoacetamido]-3-(8-chloropyrrolo[1,2-a]pyrazinium-2-yl)methyl-3-cephem-4-carboxylate] |
| 0.39 (≈ 0.759 µM) | ≤ 0.006 | 0.025 (≈ 0.0487 µM) | ≤ 0.006 | ≤ 0.006 | 0.1 (≈ 0.195 µM) | 0.78 (≈ 1.52 µM) | 0.05 (≈ 0.0974 µM) | ≤ 0.006 | ≤ 0.006 | 0.78 (≈ 1.52 µM) | 25 (≈ 48.7 µM) | 0.39 (≈ 0.759 µM) | 1.56 (≈ 3.04 µM) | ≤ 0.006 | ≤ 6 | ≤ 0.006 | 0.1 (≈ 0.195 µM) | 0.1 (≈ 0.195 µM) | ≤ 0.006 | CON=C(C(=O)NC1C(=O)N2C(C(=O)[O-])=C(C[n+]3ccn4cccc4c3)CSC12)c1csc(N)n1 (stereo not drawn) [Ex. 1-1, 7-β-[(Z)-2-(2-aminothiazol-4-yl)2-methoxyiminoacetamido]-3-(pyrrolo[1,2a]pyrazinium-2-yl)methyl-3-cephem-4-carboxylate] |
